# Data: US20240287089A1, “Preparation and Uses of 7-Azaindenoisoquinolines” (Purdue Research Foundation, priority 0001, published 2024)
# Read-outs that look alike come from different tables or passages of the source.
# Legend:
# [1] = test system: MYC mRNA in MCF-7 breast cancer cells; assay: qRT-PCR of MYC mRNA; type: cell-based; conditions: MCF-7, 1.0 μM, 6 h
# Procedure: Quantitative Reverse Transcriptase PCR (qRT-PCR). MCF-7 cells were grown and treated in 12-well tissue culture plates until collection. Total RNA was extracted using TRIzol reagent (15596018, Life Technologies). Purified RNA was dissolved in DEPC water and quantified. 1 μg purified RNA per sample was converted to cDNA using qScript cDNA SuperMix (84034, Quantabio) according to manufacturer's instruction. Real-time PCR reagents were made for each sample by mixing 1 μL synthesized cDNA, 3 μL PCR-grade water, 5 μL SYBR Green reagent (A25742, Applied Biosystem), and 0.25 μL each primer for Myc and GAPDH. Reactions were set up in triplicate for each target of each sample. Real-time PCR was conducted in 96-well PCR plates with a QuantStudio 6 Flex Real-Time PCR System (Life Technologies). The cycling condition was 95° C. for 5 min, followed by 40 cycles at 95° C. for 15 s, 60° C. for 15 s, and 72° C. for 15 s. The relative Myc expression was calculated using the 2^−ΔΔCt method by normalizing against GAPDH as the endogenous control.
# [2] = in vivo, iv, 20 mg/kg
# Procedure: (§1) Brain Penetration Studies. […] The concentrations were determined by LC-MS/MS with direct measurement of the plasma samples. The brain tissue was homogenized with water using a 3:1 ratio of water (mL) to brain (g) before determination of the concentrations (ng/mL) in the brain homogenates, and the homogenate values then were multiplied by a factor of 4 to obtain the brain concentrations (ng/g).
# [3] = male, mouse, microsomes, 1 μM
# [4] = test system: MOLT-4 human leukemia cells; assay: MOLT-4 xenograft in female NOD SCID mice; type: in vivo; conditions: 20 mg/kg IV, 24 days after tumor inoculation
# Text: Xenograft Studies. […] JQ1 was employed as a positive control.
# [5] = dogs, same time points; cited from earlier work
# [6] = Brain penetration and plasma/brain pharmacokinetics in CD1 mice; conditions: for Brain Conc / Brain/Plasma Conc Ratio / Plasma Conc: 20 mg/kg IV
# Procedure: as §1
# HCT-116 (Colon) = conditions: Colon HCT-116; reference 20; read-out: Cytotoxicity GI50; cited from earlier work
# SF-539 (CNS) = conditions: CNS SF-539; reference 20; read-out: Cytotoxicity GI50; cited from earlier work
# MCF7 (Breast) = conditions: reference 20, read-out: Cytotoxicity GI50; cited from earlier work
# DU-145 (Prostate) = conditions: Prostate DU-145; reference 20; read-out: Cytotoxicity GI50; cited from earlier work
# UACC-62 (Melanoma) = conditions: Melanoma UACC-62; reference 20; read-out: Cytotoxicity GI50; cited from earlier work
# [7] = brain, IV 20 mg/kg, male CD1 mice
# [8] = plasma, IV 20 mg/kg, male CD1 mice
smiles,measurement,setting,value
"COc1cc2c3c(n(CCCNCCO)c(=O)c2cc1OC)-c1nc2c(cc1C3=O)OCO2 [G105, 6-(3-((2-Hydroxyethyl)amino)propyl)-2,3-dimethoxy-5H-[1,3]dioxolo[4″,5″:5′,6′]pyrido[3′,2′:4,5]cyclopenta[1,2-c]isoquinoline-5,12(6H)-dione]",MYC mRNA level,[1],significantly lowered MYC mRNA levels
same,AUCInf,"[2]; male, CD1, mouse",2949 ng·h/mL
same,AUClast,"[2]; male, CD1, mouse",2847 ng·h/mL
same,C0,"[2]; male, CD1, mouse",3904 ng/mL
same,Cl_obs,"[2]; male, CD1, mouse",113 mL/min/kg
same,MRTInf—obs,"[2]; male, CD1, mouse",4.12 h
same,T1/2,"[2]; male, CD1, mouse",6.18 h
same,Brain/Plasma Conc Ratio,"[2]; male, CD1, mouse, 0.25 h",0.42
same,Brain/Plasma Conc Ratio,"[2]; male, CD1, mouse, 0.5 h",0.44
same,Brain/Plasma Conc Ratio,"[2]; male, CD1, mouse, 1 h",0.73
same,Brain/Plasma Conc Ratio,"[2]; male, CD1, mouse, 2 h",1.45
same,Brain/Plasma Conc Ratio,"[2]; male, CD1, mouse, 4 h",2.71
same,Brain/Plasma Conc Ratio,"[2]; male, CD1, mouse, 8 h",10.2
same,AUClast,[2]; mouse,9698 ng·h/g
same,Scaled-up CLint,[3],14.10 mL/min/kg
same,T1/2,[3],7.1658 h
same,in vitro CLint,[3],3.22 μL/min/mg protein
same,average animal weight relative to initial body weight,[4],80.9±1.1%
COc1cc2c3c(n(CCCNCCO)c(=O)c2cc1OC)-c1cc2c(cc1C3=O)OCO2 [LMP744],mean tumor concentration relative to plasma concentration,[5],at least 100 times
same,Brain Conc,[6]; 0.25 h,941 ± 158 nM
same,Brain/Plasma Conc Ratio,[6]; 0.25 h,0.65
same,Plasma Conc,[6]; 0.25 h,1434 ± 123 nM
same,Brain Conc,[6]; 0.5 h,582 ± 380 nM
same,Brain/Plasma Conc Ratio,[6]; 0.5 h,0.34
same,Plasma Conc,[6]; 0.5 h,1712 ± 945 nM
same,Brain Conc,[6]; 1 h,802 ± 122 nM
same,Brain/Plasma Conc Ratio,[6]; 1 h,0.90
same,Plasma Conc,[6]; 1 h,894 ± 194 nM
same,Brain Conc,[6]; 2 h,743 ± 136 nM
same,Brain/Plasma Conc Ratio,[6]; 2 h,1.39
same,Plasma Conc,[6]; 2 h,535 ± 103 nM
same,Brain Conc,[6]; 4 h,857 ± 162 nM
same,Brain/Plasma Conc Ratio,[6]; 4 h,5.44
same,Plasma Conc,[6]; 4 h,154 ± 14 nM
same,Brain Conc,[6]; 8 h,759 ± 188 nM
same,Plasma Conc,[6]; 8 h,86 ± 31 nM
same,Brain Conc,[6]; 24 h,524 ± 166 nM
same,Brain/Plasma Conc Ratio,[6]; 24 h,27.1
same,Plasma Conc,[6]; 24 h,23 ± 5 nM
same,AUClast,[6]; [7],7606 ng·h/g
same,AUC—% Extrap—obs,[6]; [7],72%
same,Cmax,[6]; [7],413 ng/g
same,Tmax,[6]; [7],0.25 h
same,AUCInf,[6]; [8],2132 ng·h/mL
same,AUClast,[6]; [8],2022 ng·h/mL
same,AUC—% Extrap—obs,[6]; [8],5.16%
same,C0,[6]; [8],1943 ng/mL
same,Cl_obs,[6]; [8],156 mL/min/kg
same,MRTInf—obs,[6]; [8],5.14 h
same,T1/2,[6]; [8],7.48 h
same,Vss—obs,[6]; [8],48.2 L/kg
same,GI50,HCT-116 (Colon),100 nM
same,GI50,SF-539 (CNS),40 nM
same,GI50,MCF7 (Breast),790 nM
same,GI50,DU-145 (Prostate),< 10 nM
same,GI50,UACC-62 (Melanoma),30 nM
